Our source for the IC50 values is patent US6147100A, “Pyrrolidine derivatives having phospholipase A2 inhibitory activity” (Shionogi & Co., Ltd., priority 1997, dated 2000).

One experiment concerns the target T1, cPLA2 (Homo sapiens, UniProt P47712).
T1 sequence (P47712 1-749): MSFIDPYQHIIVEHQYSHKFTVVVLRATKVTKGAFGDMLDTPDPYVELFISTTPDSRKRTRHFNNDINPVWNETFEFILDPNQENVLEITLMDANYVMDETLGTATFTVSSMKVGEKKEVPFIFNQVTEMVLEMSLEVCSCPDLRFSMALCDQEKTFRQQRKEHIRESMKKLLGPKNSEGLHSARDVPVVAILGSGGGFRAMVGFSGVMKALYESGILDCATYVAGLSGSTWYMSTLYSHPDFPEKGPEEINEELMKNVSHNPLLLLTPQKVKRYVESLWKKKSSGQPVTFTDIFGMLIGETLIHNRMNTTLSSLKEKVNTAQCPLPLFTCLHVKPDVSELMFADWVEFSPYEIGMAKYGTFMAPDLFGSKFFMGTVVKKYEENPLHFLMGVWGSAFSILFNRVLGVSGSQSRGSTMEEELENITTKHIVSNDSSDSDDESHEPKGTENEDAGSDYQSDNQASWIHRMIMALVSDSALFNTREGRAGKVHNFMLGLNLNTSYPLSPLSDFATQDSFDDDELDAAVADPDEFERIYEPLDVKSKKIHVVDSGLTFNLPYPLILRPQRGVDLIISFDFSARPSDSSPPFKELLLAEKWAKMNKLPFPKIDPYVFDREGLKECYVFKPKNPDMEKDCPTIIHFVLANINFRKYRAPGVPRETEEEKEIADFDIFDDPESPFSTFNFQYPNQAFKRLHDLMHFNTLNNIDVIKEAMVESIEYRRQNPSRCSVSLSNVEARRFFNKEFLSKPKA
Kind of experiment: cPLA2 Inhibitory Activity. Format: biochemical. The conditions noted are these: 1-palmitoyl-2-[14C]-arachidonoyl-sn-glycero-3-phosphocholine 2.5 μM, sn-1,2-dioleoylglycerol 1.25 μM; pH 7.5, 15 min at 37° C. In outline: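 Radiometric assay in 50 mM HEPES pH 7.5 with 1 mM CaCl2, 150 mM NaCl, 0.1 mg/ml BSA and 1.7 mM DTT; compound and substrate added, reaction started with enzyme, 15 min at 37° C. Released fatty acids extracted (Dole method), counted by liquid scintillation versus no-compound control.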

In experiment [1] the test system is production of prostaglandin E2 by human fibroblasts. In words: Inhibition of Production of Prostaglandin E2 in Human Fibroblasts (IL-1 stimulation). The format is cell-based. Conditions: Fibroblast; human fibroblasts under stimulation with IL-1. The procedure, abridged: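 Human fibroblasts stimulated with IL-1, with prostaglandin E2 production measured in the presence of compound as a cellular read-out of cPLA2 inhibition.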

`O=C1NC(=S)S/C1=C\c1ccc(C(=O)NC[C@@H]2C[C@@H](SCc3ccccc3-c3ccccc3)CN2C(=O)c2ccccc2C(=O)c2ccc(F)cc2)s1` [Compound I-8]: the IC50 stood at 33 nM against cPLA2 and 1000 nM in experiment [1].

For `O=C1NC(=O)/C(=C/c2ccc(S(=O)(=O)NC[C@@H]3C[C@@H](SCc4ccccc4-c4ccccc4)CN3C(=O)c3ccccc3C(=O)c3ccc(F)cc3)s2)S1` [Compound I-9], the values for the IC50 (against cPLA2; in experiment [1]) were 240 nM and 1800 nM, respectively.

Turning to `O=C1NC(=S)S/C1=C\c1ccc(S(=O)(=O)NC[C@@H]2C[C@@H](SCc3ccccc3-c3ccccc3)CN2C(=O)c2ccccc2C(=O)c2ccc(F)cc2)s1` [Compound I-10], the IC50 on cPLA2 was 760 nM; in experiment [1], 320 nM.

On to `O=C1NC(=O)/C(=C/c2ccc(NC(=O)[C@@H]3C[C@@H](SCc4ccccc4-c4ccccc4)CN3C(=O)c3ccccc3C(=O)c3ccc(F)cc3)cc2)S1` [Compound J-1], for which the IC50 against cPLA2 was found to be 84 nM; in experiment [1] it was 120 nM.

Consider `O=C1NC(=S)S/C1=C\c1ccc(NC(=O)[C@@H]2C[C@@H](SCc3ccccc3-c3ccccc3)CN2C(=O)c2ccccc2C(=O)c2ccc(F)cc2)cc1` [Compound J-2], for which the IC50 against cPLA2 is 23 nM; in experiment [1], 960 nM.

Regarding `O=C1NC(=O)/C(=C/c2ccc(NC(=O)[C@@H]3C[C@@H](SCc4ccccc4-c4ccccc4)CN3C(=O)c3ccccc3C(=O)c3ccc(F)cc3)s2)S1` [Compound J-3], the concentration for half-maximal inhibition (IC50) against cPLA2 turned out to be 430 nM; in experiment [1], 5700 nM.

Regarding `O=C1NC(=S)S/C1=C\c1ccc(NC(=O)[C@@H]2C[C@@H](SCc3ccccc3-c3ccccc3)CN2C(=O)c2ccccc2C(=O)c2ccc(F)cc2)s1` [Compound J-4], the IC50 came out at 810 nM against cPLA2 and 5200 nM in experiment [1].

Take `O=C1NC(=S)S/C1=C\c1ccc(NC(=O)[C@@H]2C[C@@H](SCc3ccccc3-c3ccccc3)CN2C(=O)c2ccccc2C(=O)c2ccc(F)cc2)c(O)c1` [Compound J-7]: the results for the IC50 (against cPLA2; in experiment [1]) were 500 nM and 6200 nM, respectively.

`O=C1NC(=O)/C(=C/c2ccc(C(=O)NC[C@@H]3C[C@@H](N(Cc4ccccc4)Cc4ccccc4)CN3C(=O)c3ccccc3C(=O)c3ccc(F)cc3)cc2)S1` [Compound M-3]: the IC50 against cPLA2 worked out at 60 nM; in experiment [1] it was 3100 nM.

Consider `CC(C)CN(Cc1ccccc1)[C@@H]1C[C@@H](CNC(=O)c2ccc(/C=C3\SC(=O)NC3=O)cc2)N(C(=O)c2ccccc2C(=O)c2ccc(F)cc2)C1` [Compound M-5], for which the IC50 was 100 nM on cPLA2 and 3000 nM in experiment [1].

Take `CN(Cc1ccccc1-c1ccccc1)[C@@H]1C[C@@H](CNC(=O)c2ccc(/C=C3\SC(=O)NC3=O)cc2)N(C(=O)c2ccccc2C(=O)c2ccc(F)cc2)C1` [Compound M-6]: the IC50 on cPLA2 worked out at 140 nM; in experiment [1] it was 1500 nM.

Regarding `CN(Cc1ccccc1-c1ccccc1)[C@@H]1C[C@@H](CNC(=O)c2ccc(/C=C3\SC(=S)NC3=O)cc2)N(C(=O)c2ccccc2C(=O)c2ccc(F)cc2)C1` [Compound M-7], the IC50 stood at 270 nM on cPLA2 and 1500 nM in experiment [1].

As for `CCN(Cc1ccccc1-c1ccccc1)[C@@H]1C[C@@H](CNC(=O)c2ccc(/C=C3\SC(=O)NC3=O)cc2)N(C(=O)c2ccccc2C(=O)c2ccc(F)cc2)C1` [Compound M-8], the IC50 against cPLA2 was 60 nM; in experiment [1], 800 nM.

As for `CC(C)N(Cc1ccccc1-c1ccccc1)[C@@H]1C[C@@H](CNC(=O)c2ccc(/C=C3\SC(=O)NC3=O)cc2)N(C(=O)c2ccccc2C(=O)c2ccc(F)cc2)C1` [Compound M-9], the concentration for half-maximal inhibition (IC50) against cPLA2 amounted to 39 nM; in experiment [1] it was 3600 nM.

As for `CC(C)CN(Cc1ccccc1-c1ccccc1)[C@@H]1C[C@@H](CNC(=O)c2ccc(/C=C3\SC(=O)NC3=O)cc2)N(C(=O)c2ccccc2C(=O)c2ccc(F)cc2)C1` [Compound M-10], the values for the IC50 (on cPLA2; in experiment [1]) were 22 nM and 270 nM, respectively.

Take `CC(C)CCN(Cc1ccccc1-c1ccccc1)[C@@H]1C[C@@H](CNC(=O)c2ccc(/C=C3\SC(=O)NC3=O)cc2)N(C(=O)c2ccccc2C(=O)c2ccc(F)cc2)C1` [Compound M-11]: the results for the IC50 (against cPLA2; in experiment [1]) were 36 nM and 970 nM, respectively.

Consider `CN(C(c1ccccc1)c1ccccc1)[C@@H]1C[C@@H](CNC(=O)c2ccc(/C=C3\SC(=O)NC3=O)cc2)N(C(=O)c2ccccc2C(=O)c2ccc(F)cc2)C1` [Compound M-12], for which the IC50 at cPLA2 was determined as 94 nM; in experiment [1], 230 nM.

As for `O=C1NC(=O)/C(=C/c2ccc(C(=O)NC[C@@H]3C[C@@H](N(CC4CC4)C(c4ccccc4)c4ccccc4)CN3C(=O)c3ccccc3C(=O)c3ccc(F)cc3)cc2)S1` [Compound M-14], the IC50 is 27 nM against cPLA2 and 1400 nM in experiment [1].

In the case of `CC(C)CN(C(c1ccccc1)c1ccccc1)[C@@H]1C[C@@H](CNC(=O)c2ccc(/C=C3\SC(=O)NC3=O)cc2)N(C(=O)c2ccccc2C(=O)c2ccc(F)cc2F)C1` [Compound M-17], the IC50 was 4.1 nM against cPLA2 and 1000 nM in experiment [1].

Regarding `CC(C)CN(Cc1ccccc1)[C@@H]1C[C@@H](CNC(=O)/C=C/c2ccc(/C=C3\SC(=O)NC3=O)cc2)N(C(=O)c2ccccc2C(=O)c2ccc(F)cc2)C1` [Compound M-18], the values for the IC50 (against cPLA2; in experiment [1]) were 79 nM and 8800 nM, respectively.

With `CC(C)CN(C(c1ccccc1)c1ccccc1)[C@@H]1C[C@@H](CNC(=O)/C=C/c2ccc(/C=C3\SC(=O)NC3=O)cc2)N(C(=O)c2ccccc2C(=O)c2ccc(F)cc2F)C1` [Compound M-21], the figures for the IC50 (at cPLA2; in experiment [1]) were 2.1 nM and 310 nM, respectively.

In the case of `CN(Cc1ccccc1)[C@@H]1C[C@@H](C(=O)Nc2ccc(/C=C3\SC(=S)NC3=O)cc2)N(C(=O)c2ccccc2C(=O)c2ccc(F)cc2)C1` [Compound N-1], the IC50 was found to be 140 nM against cPLA2 and 760 nM in experiment [1].

As to `CN(Cc1ccccc1-c1ccccc1)[C@@H]1C[C@@H](C(=O)Nc2ccc(/C=C3\SC(=O)NC3=O)cc2)N(C(=O)c2ccccc2C(=O)c2ccc(F)cc2)C1` [Compound N-2], the IC50 on cPLA2 was found to be 130 nM; in experiment [1], 1800 nM.

With `CN(Cc1ccccc1-c1ccccc1)[C@@H]1C[C@@H](C(=O)Nc2ccc(/C=C3\SC(=S)NC3=O)cc2)N(C(=O)c2ccccc2C(=O)c2ccc(F)cc2)C1` [Compound N-3], the figures for the IC50 (against cPLA2; in experiment [1]) were 59 nM and 1000 nM, respectively.

As for `O=C1NC(=O)/C(=C/c2ccc(C(=O)NC[C@@H]3C[C@@H](Cc4ccccc4-c4ccccc4)CN3C(=O)c3ccccc3C(=O)c3ccc(F)cc3)cc2)S1` [Compound O-1], the IC50 amounted to 200 nM against cPLA2 and 760 nM in experiment [1].

Take `O=C1NC(=O)/C(=C/c2ccc(C(=O)NC[C@@H]3C[C@@H](COc4ccccc4-c4ccccc4)CN3C(=O)c3ccccc3C(=O)c3ccc(F)cc3)cc2)S1` [Compound O-2]: the figures for the IC50 (against cPLA2; in experiment [1]) were 58 nM and 230 nM, respectively.

In the case of `O=C1NC(=O)/C(=C/c2ccc(C(=O)NC[C@@H]3C[C@@H](CCc4ccccc4-c4ccccc4)CN3C(=O)c3ccccc3C(=O)c3ccc(F)cc3)cc2)S1` [Compound O-3], the IC50 came to 55 nM against cPLA2 and 1100 nM in experiment [1].

With `O=C1NC(=O)/C(=C/c2ccc(C(=O)NC[C@H]3C[C@@H](SCc4ccccc4-c4ccccc4)CN3C(=O)c3ccccc3C(=O)c3ccc(F)cc3)cc2)S1` [Compound Q-1], the IC50 at cPLA2 was found to be 2510 nM; in experiment [1] it was 1200 nM.

As to `O=C1NC(=O)/C(=C/c2ccc(C(=O)NC[C@H]3C[C@@H](OCc4ccccc4-c4ccccc4)CN3C(=O)c3ccccc3C(=O)c3ccc(F)cc3)cc2)S1` [Compound Q-2], the IC50 was determined as 1810 nM on cPLA2 and 1400 nM in experiment [1].

Take `O=C1NC(=O)/C(=C/c2ccc(C(=O)NC[C@@H]3C[C@H](OCc4ccccc4-c4ccccc4)CN3C(=O)c3ccccc3C(=O)c3ccc(F)cc3)cc2)S1` [Compound Q-3]: the IC50 on cPLA2 was 200 nM; in experiment [1], 490 nM.

Take `O=C1NC(=O)/C(=C/c2ccc(C(=O)NC[C@H]3C[C@H](SCc4ccccc4-c4ccccc4)CN3C(=O)c3ccccc3C(=O)c3ccc(F)cc3)cc2)S1` [Compound Q-4]: the IC50 at cPLA2 came out at 1850 nM; in experiment [1], 950 nM.

On to `O=C1NC(=O)/C(=C/c2ccc(C(=O)NC[C@H]3C[C@H](OCc4ccccc4-c4ccccc4)CN3C(=O)c3ccccc3C(=O)c3ccc(F)cc3)cc2)S1` [Compound Q-5], for which the IC50 against cPLA2 worked out at 1920 nM; in experiment [1], 1300 nM.
